Patent publication US20250353864A1, “INDAZOLE CONTAINING MACROCYCLES AND THEIR USE” (BLOSSOMHILL THERAPEUTICS, INC., priority 2022, published 2025)

What was measured:
Assay type in all cases: biochemical
EGFR WT = EGFR WT (Homo sapiens (Human), UniProt P00533); experiment: HotSpot radiometric kinase assay (Reaction Biology), EGFR WT; conditions: 10 μM ATP
In short: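 10 μM ATP (33P-labelled, final); 120 min RT; P81 filter capture, 0.75% phosphoric acid washes. Cpd preincubated ~20 min with enzyme/substrate, 20 mM Hepes pH 7.5, 10 mM MgCl2, 1% DMSO. IC50 by curve fit.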

EGFR (D770_N771insNPG) = EGFR (D770_N771insNPG) (Homo sapiens (Human), UniProt P00533, INS770NPG); experiment: HotSpot radiometric kinase assay, EGFR (D770_N771insNPG); conditions: 10 μM ATP, read-out: EGFR (Δ770_N771insNPG) IC50
In short: (§1)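 Enzyme and substrate pairs were exposed to inhibitor for roughly 20 min before radiolabelled ATP (10 μM final) was introduced; the reaction proceeded 120 min at ambient temperature in pH 7.5 buffer with 1% DMSO, and phosphorylated product was captured on P81 filters for IC50 determination.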

EGFR Δ746-750 mutant = EGFR Δ746-750 mutant (Homo sapiens (Human), UniProt P00533, DEL746-750); experiment: HotSpot radiometric kinase assay, EGFR Δ746-750 mutant; conditions: 10 μM ATP
In short: as §1

[1] = target: EGFR Δ746-750/C797S mutant (Homo sapiens (Human), UniProt P00533, C797S/DEL746-750); experiment: HotSpot radiometric kinase assay, EGFR Δ746-750/C797S mutant; conditions: 10 μM ATP
In short: as §1

EGFR L858R mutant = EGFR L858R mutant (Homo sapiens (Human), UniProt P00533, L858R); experiment: HotSpot radiometric kinase assay, EGFR L858R mutant; conditions: 10 μM ATP
In short: as §1

EGFR L858R/T790M mutant = EGFR L858R/T790M mutant (Homo sapiens (Human), UniProt P00533, L858R/T790M); experiment: HotSpot radiometric kinase assay, EGFR L858R/T790M mutant; conditions: 10 μM ATP
In short: as §1

[2] = target: EGFR L858R/T790M/C797S mutant (Homo sapiens (Human), UniProt P00533, C797S/L858R/T790M); experiment: HotSpot radiometric kinase assay, EGFR L858R/T790M/C797S mutant; conditions: 10 μM ATP
In short: as §1

Chain of EGFR L858R/T790M/C797S mutant (P00533 25-1210 T790M/C797S/L858R): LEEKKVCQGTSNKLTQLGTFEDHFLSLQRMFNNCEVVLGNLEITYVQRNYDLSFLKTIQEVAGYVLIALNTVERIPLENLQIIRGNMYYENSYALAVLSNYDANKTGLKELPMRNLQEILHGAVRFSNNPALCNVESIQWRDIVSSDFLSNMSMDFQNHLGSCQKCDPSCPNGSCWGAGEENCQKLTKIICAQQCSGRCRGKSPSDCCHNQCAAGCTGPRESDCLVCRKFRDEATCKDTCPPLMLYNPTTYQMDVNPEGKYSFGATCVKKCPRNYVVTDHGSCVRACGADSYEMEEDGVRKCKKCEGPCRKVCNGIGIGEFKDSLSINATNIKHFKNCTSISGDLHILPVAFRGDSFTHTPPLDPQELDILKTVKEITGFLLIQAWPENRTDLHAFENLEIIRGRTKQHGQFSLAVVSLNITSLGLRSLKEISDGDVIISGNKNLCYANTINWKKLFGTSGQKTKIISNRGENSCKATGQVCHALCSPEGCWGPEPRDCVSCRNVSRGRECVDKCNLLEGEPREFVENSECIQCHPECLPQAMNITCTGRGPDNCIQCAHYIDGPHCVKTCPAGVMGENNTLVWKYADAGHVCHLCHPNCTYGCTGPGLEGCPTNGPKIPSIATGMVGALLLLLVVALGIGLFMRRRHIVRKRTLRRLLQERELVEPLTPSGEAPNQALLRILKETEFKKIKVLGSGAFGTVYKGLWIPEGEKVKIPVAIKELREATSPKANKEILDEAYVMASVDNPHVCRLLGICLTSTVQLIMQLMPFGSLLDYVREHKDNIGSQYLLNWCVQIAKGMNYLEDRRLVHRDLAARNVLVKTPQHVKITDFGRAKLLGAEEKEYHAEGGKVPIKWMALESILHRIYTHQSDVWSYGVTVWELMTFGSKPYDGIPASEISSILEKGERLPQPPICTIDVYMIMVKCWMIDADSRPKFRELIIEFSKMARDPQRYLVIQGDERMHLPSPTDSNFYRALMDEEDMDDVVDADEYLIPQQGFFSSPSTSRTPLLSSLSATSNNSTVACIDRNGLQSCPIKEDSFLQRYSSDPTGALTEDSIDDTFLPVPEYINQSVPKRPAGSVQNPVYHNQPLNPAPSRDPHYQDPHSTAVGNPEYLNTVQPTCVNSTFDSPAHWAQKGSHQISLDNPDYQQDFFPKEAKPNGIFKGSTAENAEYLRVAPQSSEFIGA
Chain of EGFR L858R/T790M mutant (P00533 25-1210 T790M/L858R): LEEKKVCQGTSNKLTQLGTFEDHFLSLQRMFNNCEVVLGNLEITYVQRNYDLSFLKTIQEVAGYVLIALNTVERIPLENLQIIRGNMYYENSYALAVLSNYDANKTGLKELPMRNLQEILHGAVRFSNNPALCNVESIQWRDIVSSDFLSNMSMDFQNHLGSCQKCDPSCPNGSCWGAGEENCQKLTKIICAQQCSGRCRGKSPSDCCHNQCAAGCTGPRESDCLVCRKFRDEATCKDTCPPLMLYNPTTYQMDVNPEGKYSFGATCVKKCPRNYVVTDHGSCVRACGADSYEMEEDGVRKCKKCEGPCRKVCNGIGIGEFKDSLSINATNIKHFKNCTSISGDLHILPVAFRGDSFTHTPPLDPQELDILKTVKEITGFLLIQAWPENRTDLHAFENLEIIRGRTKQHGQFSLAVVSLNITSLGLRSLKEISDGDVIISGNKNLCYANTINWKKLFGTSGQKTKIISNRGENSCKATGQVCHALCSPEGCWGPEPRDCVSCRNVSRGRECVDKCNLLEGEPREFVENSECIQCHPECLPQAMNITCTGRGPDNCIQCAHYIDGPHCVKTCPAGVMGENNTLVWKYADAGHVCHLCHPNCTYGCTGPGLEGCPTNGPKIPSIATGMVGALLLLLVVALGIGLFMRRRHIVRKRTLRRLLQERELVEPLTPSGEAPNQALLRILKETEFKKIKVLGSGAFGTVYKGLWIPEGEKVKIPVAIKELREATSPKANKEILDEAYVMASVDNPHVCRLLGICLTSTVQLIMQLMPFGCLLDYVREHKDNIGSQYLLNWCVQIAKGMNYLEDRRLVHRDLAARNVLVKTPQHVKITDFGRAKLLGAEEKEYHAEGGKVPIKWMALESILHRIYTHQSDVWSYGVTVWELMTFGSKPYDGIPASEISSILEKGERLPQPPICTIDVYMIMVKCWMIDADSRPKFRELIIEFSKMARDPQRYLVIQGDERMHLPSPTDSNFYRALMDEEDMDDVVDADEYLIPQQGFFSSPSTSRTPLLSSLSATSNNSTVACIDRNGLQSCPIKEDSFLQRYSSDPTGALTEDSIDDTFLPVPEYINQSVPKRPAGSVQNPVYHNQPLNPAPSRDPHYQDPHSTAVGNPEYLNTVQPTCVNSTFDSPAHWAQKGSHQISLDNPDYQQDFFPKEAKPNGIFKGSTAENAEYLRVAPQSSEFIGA
Chain of EGFR WT (P00533 25-1210): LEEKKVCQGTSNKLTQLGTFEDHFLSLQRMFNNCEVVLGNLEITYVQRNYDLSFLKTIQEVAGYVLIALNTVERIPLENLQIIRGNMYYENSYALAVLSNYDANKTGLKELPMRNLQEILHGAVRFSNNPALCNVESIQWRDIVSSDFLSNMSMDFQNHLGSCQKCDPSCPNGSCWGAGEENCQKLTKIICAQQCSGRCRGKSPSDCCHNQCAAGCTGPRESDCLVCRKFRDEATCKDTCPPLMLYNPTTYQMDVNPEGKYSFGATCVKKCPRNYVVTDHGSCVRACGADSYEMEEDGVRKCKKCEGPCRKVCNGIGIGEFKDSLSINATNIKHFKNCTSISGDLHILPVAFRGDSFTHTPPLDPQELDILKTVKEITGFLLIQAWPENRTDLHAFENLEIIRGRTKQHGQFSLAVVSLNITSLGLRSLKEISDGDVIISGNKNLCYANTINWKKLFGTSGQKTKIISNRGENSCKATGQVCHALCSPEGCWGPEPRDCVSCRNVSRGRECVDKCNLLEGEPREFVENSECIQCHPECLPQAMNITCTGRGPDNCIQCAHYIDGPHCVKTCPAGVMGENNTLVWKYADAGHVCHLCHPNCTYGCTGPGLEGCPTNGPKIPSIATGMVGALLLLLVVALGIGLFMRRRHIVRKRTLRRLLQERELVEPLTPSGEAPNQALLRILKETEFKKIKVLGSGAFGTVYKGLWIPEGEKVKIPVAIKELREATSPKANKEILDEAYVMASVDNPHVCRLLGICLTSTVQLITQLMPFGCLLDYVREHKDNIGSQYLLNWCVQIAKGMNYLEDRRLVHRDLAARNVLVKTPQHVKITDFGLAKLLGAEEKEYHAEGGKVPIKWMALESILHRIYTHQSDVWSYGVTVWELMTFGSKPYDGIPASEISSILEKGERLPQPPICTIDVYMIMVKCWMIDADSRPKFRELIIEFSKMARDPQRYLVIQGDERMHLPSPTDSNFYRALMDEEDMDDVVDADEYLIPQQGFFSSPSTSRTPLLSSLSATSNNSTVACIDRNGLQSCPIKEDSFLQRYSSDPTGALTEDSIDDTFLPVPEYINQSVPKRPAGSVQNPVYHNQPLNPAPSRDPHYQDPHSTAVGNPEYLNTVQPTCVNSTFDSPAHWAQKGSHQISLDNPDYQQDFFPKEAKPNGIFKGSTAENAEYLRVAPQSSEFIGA
Chain of EGFR L858R mutant (P00533 25-1210 L858R): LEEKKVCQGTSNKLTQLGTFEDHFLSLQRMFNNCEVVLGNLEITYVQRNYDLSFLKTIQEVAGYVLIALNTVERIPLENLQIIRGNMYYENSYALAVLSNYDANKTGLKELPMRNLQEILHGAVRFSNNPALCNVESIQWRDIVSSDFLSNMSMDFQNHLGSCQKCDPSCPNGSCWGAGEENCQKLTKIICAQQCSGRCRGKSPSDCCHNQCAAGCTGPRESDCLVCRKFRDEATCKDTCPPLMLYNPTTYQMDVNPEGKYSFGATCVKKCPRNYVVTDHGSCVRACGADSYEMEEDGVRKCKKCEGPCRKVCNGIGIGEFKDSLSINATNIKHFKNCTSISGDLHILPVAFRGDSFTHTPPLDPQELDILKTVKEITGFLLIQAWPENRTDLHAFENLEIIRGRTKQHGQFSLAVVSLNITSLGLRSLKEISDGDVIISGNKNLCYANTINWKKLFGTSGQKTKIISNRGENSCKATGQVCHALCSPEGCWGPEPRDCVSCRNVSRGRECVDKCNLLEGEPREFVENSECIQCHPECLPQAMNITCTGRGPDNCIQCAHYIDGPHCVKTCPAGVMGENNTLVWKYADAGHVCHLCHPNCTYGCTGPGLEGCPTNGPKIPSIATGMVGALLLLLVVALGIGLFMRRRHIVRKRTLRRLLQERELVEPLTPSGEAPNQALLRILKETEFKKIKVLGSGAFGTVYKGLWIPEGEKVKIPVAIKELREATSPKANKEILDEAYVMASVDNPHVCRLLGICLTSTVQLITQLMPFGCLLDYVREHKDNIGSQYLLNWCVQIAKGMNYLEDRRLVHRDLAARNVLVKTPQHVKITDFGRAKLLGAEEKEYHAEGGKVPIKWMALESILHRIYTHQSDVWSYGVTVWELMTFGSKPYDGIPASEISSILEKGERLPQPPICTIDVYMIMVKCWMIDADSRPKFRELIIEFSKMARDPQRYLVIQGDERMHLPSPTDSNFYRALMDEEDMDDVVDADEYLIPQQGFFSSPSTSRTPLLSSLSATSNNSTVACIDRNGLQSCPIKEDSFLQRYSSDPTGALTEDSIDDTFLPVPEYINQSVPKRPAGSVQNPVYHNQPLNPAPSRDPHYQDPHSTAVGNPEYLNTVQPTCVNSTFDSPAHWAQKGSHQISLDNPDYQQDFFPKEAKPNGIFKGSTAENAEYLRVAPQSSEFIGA

IC50 (EGFR WT) | IC50 (EGFR (D770_N771insNPG)) | IC50 (EGFR Δ746-750 mutant) | IC50 [1] | IC50 (EGFR L858R mutant) | IC50 (EGFR L858R/T790M mutant) | IC50 [2] | Compound
44.1 nM | 17.2 nM | 17.6 nM | 14.1 nM | 9.99 nM | 0.82 nM | 5.75 nM | CN(C)Cc1ccc2c(c1)O[C@@H]1CCN(CCOc3c(cnn3C)-c3ccc4[nH]nc(c4c3)/C=C/2)C1=O [Example 94, (10R,16E)-13-[(dimethylamino)methyl]-3-methyl-3,5,6,9,10,19-hexahydro-8H-20,22-etheno-7,10-methanodipyrazolo[3,4-i:4′,3′-m][1,8,5]benzodioxazacyclooctadecin-25-one]
405 nM | 306 nM | 93 nM | 92.4 nM | 121 nM | 14.9 nM | 25.6 nM | CCc1nn(CCN2CC[C@H](O)C2)c2c1/C=C/c1n[nH]c3ccc(cc13)-c1cnn(C)c1OCCCO2 [Example 69, (3S)-1-{2-[(17E)-16-ethyl-8-methyl-2,8,11,12-tetrahydro-10H,14H-3,5-etheno[1,5]dioxacyclopentadecino[10,11-c:15,14-c′:6,7-c″]tripyrazol-14-yl]ethyl}pyrrolidin-3-ol]
457 nM | 851 nM | 81.1 nM | 38.4 nM | 84.3 nM | 7.32 nM | 5.66 nM | Cc1nn(C)c2c1CN(C)C[C@H](C)Oc1c(cnn1C)-c1ccc3[nH]nc(c3c1)/C=C/2 [Example 130, (10S,17E)-8,10,12,14,16-pentamethyl-2,10,11,12,13,16-hexahydro-8H-3,5-ethenotripyrazolo[4,3-f:3′,4′-j:4″,3″- n][1,4]oxazacyclopentadecine]
63.3 nM | 16.8 nM | 3.29 nM | 9.18 nM | 8.04 nM | 0.39 nM | 1.91 nM | CCN1CCOc2c(c(C)nn2C)/C=C/c2n[nH]c3ccc(cc23)-c2cnn(C)c2C1 [Example 111, (17E)-10-ethyl-8,14,16-trimethyl-2,9,10,11,12,14-hexahydro-8H-3,5-ethenotripyrazolo[3,4-f:4′,3′-j:4″,3″-n][1,4]oxazacyclopentadecine]
167 nM | 524 nM | 121 nM | 23 nM | 30.1 nM | 1.95 nM | 4.93 nM | Cc1c2c(nn1CCC(C)O)CN(C)C[C@H](C)Oc1c(cnn1C)-c1ccc3[nH]nc(c3c1)/C=C/2 (stereo partly drawn) [Example 95, 4-[(10S,17E)-8,10,12,16-tetramethyl-2,8,10,11,12,13-hexahydro-15H-3,5-ethenotripyrazolo[3,4-f:3′,4′-j:4″,3″-n][1,4]oxazacyclopentadecin-15-yl]butan-2-ol]
86 nM | 109 nM | 74.1 nM | 39.8 nM | 36.1 nM | 12.5 nM | 15.8 nM | Cc1nn([C@H]2CNC[C@@H]2O)c2c1/C=C/c1n[nH]c3ccc(cc13)-c1cnn(C)c1OCCCO2 (racemic) [Example 74, (rac)-4-[(17E)-8,16-dimethyl-2,8,11,12-tetrahydro-10H,14H-3,5-etheno[1,5]dioxacyclopentadecino[10,11-c:15,14-c′:6,7-c″ ]tripyrazol-14-yl]pyrrolidin-3-ol]
150 nM | 112 nM | 14.4 nM | 28.5 nM | 30.4 nM | 4.99 nM | 8.54 nM | CCc1nn(C)c2c1/C=C/c1n[nH]c3ccc(cc13)-c1cnn(C)c1CN(C)CCO2 [Example 110, (17E)-16-ethyl-8,10,14-trimethyl-2,9,10,11,12,14-hexahydro-8H-3,5-ethenotripyrazolo[3,4-f:4′,3′-j:4″,3″- n][1,4]oxazacyclopentadecine]
98.7 nM | 73.6 nM | 32.3 nM | 27.1 nM | 70.1 nM | 3.81 nM | 3.68 nM | Cn1ncc2c1OCCN1CC[C@@H](Oc3ccccc3/C=C/c3n[nH]c4ccc-2cc34)C1=O [Example 70, (10R,16E)-3-methyl-3,5,6,9,10,19-hexahydro-8H-20,22-etheno-7,10-methanodipyrazolo[3,4-i:4,3′-m][1,8,5]benzodioxazacyclooctadecin-25-one]
6.36 nM | 33.4 nM | 3.21 nM | 2.58 nM | 2.31 nM | 0.45 nM | 0.37 nM | C[C@H]1CN(C)Cc2c(c(OC3CN(S(C)(=O)=O)C3)nn2C)/C=C/c2n[nH]c3ccc(cc23)-c2cnn(C)c2O1 [Example 150, (10S,17E)-16-{[1-(methanesulfonyl)azetidin-3-yl]oxy}-8,10,12,14-tetramethyl-2,10,11,12,13,14-hexahydro-8H-3,5-ethenotripyrazolo[3,4-f:3′,4′-j:4″,3″-n][1,4]oxazacyclopentadecine]
> 1000 nM | > 1000 nM | 472 nM | 422 nM | 1580 nM | 56.7 nM | 31.6 nM | CCOc1nn(CCO)c2c1/C=C/c1n[nH]c3ccc(cc13)-c1cnn(C)c1O[C@@H]1CN(C)C[C@H]1N(C)C2 (single isomer, unassigned) [Ex. 271]
264 nM | 383 nM | 33.7 nM | 15.2 nM | 21.9 nM | 0.77 nM | 1.01 nM | Cc1c2c(nn1C[C@@H](C)O)CN(C)C[C@H](C)Oc1c(cnn1C)-c1ccc3[nH]nc(c3c1)/C=C/2 [Example 128, (2R)-1-[(10S,17E)-8,10,12,16-tetramethyl-2,8,10,11,12,13-hexahydro-15H-3,5-ethenotripyrazolo[3,4-f:3′,4′-j:4″,3″-n][1,4]oxazacyclopentadecin-15-yl]propan-2-ol]
581 nM | 678 nM | 89.7 nM | 89.4 nM | 101 nM | 6.86 nM | 3.27 nM | Cc1c2c(nn1CCO)CN(C)C[C@H](C)Oc1c(cnn1C)-c1ccc3[nH]nc(c3c1)/C=C/2 [Example 60, 2-[(10S,17E)-8,10,12,16-tetramethyl-2,8,10,11,12,13-hexahydro-15H-3,5-ethenotripyrazolo[3,4-f:3′,4′-j:4″,3″- n][1,4]oxazacyclopentadecin-15-yl]ethan-1-ol]
69.2 nM | 138 nM | 49.2 nM | 16.7 nM | 11.4 nM | 0.86 nM | 5.02 nM | Cc1c2c(nn1CCN1CCOCC1)CN(C)C[C@H](C)Oc1c(cnn1C)-c1ccc3[nH]nc(c3c1)/C=C/2 [Example 93, (10S,17E)-8,10,12,16-tetramethyl-15-[2-(morpholin-4-yl)ethyl]-2,10,11,12,13,15-hexahydro-8H-3,5-ethenotripyrazolo[3,4-f:3′,4′-j:4″,3″- n][1,4]oxazacyclopentadecine]
> 1000 nM | > 1000 nM | 971 nM | 577 nM | > 1000 nM | 282 nM | 60.4 nM | C[C@H]1CN(C)Cc2c(c(CN(C)C)nn2CCO)/C=C/c2n[nH]c3ccc(cc23)-c2cnn(C)c2O1 [Ex. 266, 2-{(10S,17E)-16-[(dimethylamino)methyl]-8,10,12-trimethyl-2,8,10,11,12,13-hexahydro-14H-3,5-ethenotripyrazolo[3,4-f:3′,4′-j:4″,3″-n][1,4]oxazacyclopentadecin-14-yl}ethan-1-ol]
